Experimental data: patent US8710098B2, “Group of amino substituted benzoyl derivatives and their preparation and their use” (priority 2008, dated 2014)
In brackets after ≈: the same amount, converted by molar mass.

Columns and labels:
[1] = target: T1, hA3G degradation mediated by HIV-1 Vif (UniProt P69723+Q9HC16); assay: Screening experiment for up-regulation activity to hA3G (YFP-fused hA3G co-expressed with HIV-1 Vif, fluorescence); format: cell-based, human; settings: YFP fluorescence of cells co-expressing Vif and hA3G-YFP; excitation 485 nm, detection 520 nm; averages of duplicates
T1 construct: expressed in transfected cells
T1 sequence (P69723 whole entry, the tested form may be a part): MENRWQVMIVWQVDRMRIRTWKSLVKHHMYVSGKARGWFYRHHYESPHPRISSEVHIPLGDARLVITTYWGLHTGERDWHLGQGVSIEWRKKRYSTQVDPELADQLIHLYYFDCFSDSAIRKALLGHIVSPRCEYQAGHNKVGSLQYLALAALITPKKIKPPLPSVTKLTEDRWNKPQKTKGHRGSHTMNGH
T1 sequence (Q9HC16 whole entry, the tested form may be a part): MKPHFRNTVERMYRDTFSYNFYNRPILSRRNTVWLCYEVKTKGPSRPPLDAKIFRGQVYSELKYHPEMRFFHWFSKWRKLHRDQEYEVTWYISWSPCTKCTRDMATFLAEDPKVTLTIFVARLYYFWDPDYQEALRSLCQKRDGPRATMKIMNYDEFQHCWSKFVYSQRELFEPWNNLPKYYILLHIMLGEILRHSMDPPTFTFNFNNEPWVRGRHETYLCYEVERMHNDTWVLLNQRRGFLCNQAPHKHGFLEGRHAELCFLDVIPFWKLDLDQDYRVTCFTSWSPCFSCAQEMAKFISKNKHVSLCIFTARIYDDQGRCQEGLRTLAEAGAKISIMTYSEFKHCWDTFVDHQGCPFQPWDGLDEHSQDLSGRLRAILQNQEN
Description: Based on the advances making research on the hA3G degradation mediated by HIV-1 Vif, this invention establishes a high throughput anti-HIV-1 drug screening model using hA3G degradation mediated by HIV-1 Vif as target, to screen small molecule active compounds capable of inhibiting this degradation process. The function principle of this model is that HIV-1 Vif protein and hA3G fused yellow fluorescent protein (YFP) co-expressed in the cells, then the intracellular fluorescence intensity (at […]) decreases owing to the degradation of hA3G caused by Vif and subsequent degradation of YEP fused on hA3G. By means of measuring the change of fluorescent intensity, the influence of the screened compounds on the degradation of hA3G caused by Vif can quantitatively be analyzed. Simultaneously, to differentiate the non-specific inhibitory effect of diverse ubiquitin degradation route in the samples, this invention establishes a recheck model based on the detection of P53 degradation caused by the product of adenovirus early gene, to assure that the positive samples screened out by the proposed model can specifically block the degradation of hA3G caused by Vif.
Screening Experiment for Up-Regulation Activity to hA3G
The cells are picked up and cultured a culture bottle. When the cells grow full of the culture bottle, old culture medium is discarded and the cells are digested with digestion medium. When the cells turn round, the digestion medium is discarded and the culture medium is added in at once, the bottom of the bottle is gently blown with a pipette to make the cells disengage the bottle bottom and disperse into single cell suspension. After counting the cells using blood cell counting chamber, the cell suspension is inoculated into a culture dish for transfection. The medium containing the plasmid to be transfected and the transfection reagents is gently mixed up and incubated at room temperature. The medium is then added into the supernatant of the cell culture and cultured for a certain period of time. The old culture medium is then sucked out, the cells are digested with digestive medium, the digestive medium is subsequently discarded and culture medium is immediately added. The medium is gently blown to disperse the cells into single cell suspension. After counting the cells using blood cell counting chamber, the cells are ready for inoculation.
Samples of compounds[…]Pure tested compounds are dissolved in DMSO, the solution is diluted with equal proportional distilled water. The diluent is used to test the cell systems.
Sample solution of different concentration is added into the supernatant of a cell culture. After the cells are continuously cultured, old culture medium is sucked out and the cells are blown with PBS buffer until the cells completely disengage from the culture bottle.
The fluorescence intensity values of the cell suspension with test compound samples, positive control samples and negative control samples are respectively measured with fluorometer, the excitation wavelength is 485 nm and the detection wavelength 520 nm. Averages of duplicated measurements are taken as the results.
The measured fluorescence intensity values of the negative control samples (blink sample) subtracted from those of test compound samples, the results are taken as YFP fluorescence of different groups. Relative fluorescence intensity=fluorescence intensity of a test sample group/fluorescence intensity of the positive control group×100% Inhibition rate of degradation=(test sample group−negative control group)/(positive control group−negative control group)×100%

[2] = tested on: HIV-1; settings: HIV-1 P24 antigen in supernatant 4 days (96 h) after addition of compounds
Description: (§1) The inhibitory activities of the compounds proposed in this invention to HIV-1 were measured using HIV-1 P24 antigen kit.
(§2) DMSO solutions of samples of test compounds listed in Table 2 diluted to 8 different concentrations and the solution of the positive control AZT (azidothymidine, 0.15 ng/ml) are respectively added into 96 well plates, duplications are set for each of the dilutions, and negative control samples are also made. Aliquots of 100 μl 2×10^5 cell/ml suspension are inoculated onto the 96 well cell culture plates and cultured in an incubator under a condition of 37° C., 5% CO2 and saturated humidity. The pathologic changes of the cells are observed every day. The HIV-1 P24 antigen contents in supernatant cells are measured in 4 days (96 h) after addition of the test compounds according to the operation procedure provided by the HIV-1 P24 antigen kit.

[3] = tested on: HIV-1; assay: microbe, parasite or virus in culture; settings: Human immunodeficiency virus 1, 96 h, read-out: inhibitory activity to HIV-1, IC50
Description: as §1, §2

Compound | hA3G up-regulation activity (%) [1] [%] | inhibitory activity to HIV-1, IC50 [2] [µg/mL] | IC50 [3] [µg/mL]
3-amino-4-methoxybenzanilide [Compound 2621] | 36.2 | <0.0137 | 
COc1ccc(C(=O)Nc2cc(OC)c(OC)c(OC)c2)cc1NC(=O)C(F)(F)F [Compound 263, N-(3′,4′,5′-trimethoxyphenyl)-3-trifluoroacetamido-4-methoxybenzamide] | 24.4 |  | < 0.0137
CCC(=O)Nc1cc(C(=O)Oc2cc(OC)c(OC)c(OC)c2)ccc1OC [Compound 351, 3′,4′,5′-trimethoxyphenyl 3-propionamido-4-methoxybenzoate] | 36.7 |  | 0.0299 (≈ 0.0768 µM)
COc1ccc(C(=O)Oc2cc(OC)c(OC)c(OC)c2)cc1N [Compound 352, 3′,4′,5′-trimethoxyphenyl 3-amino-4-methoxybenzoate] | 37.0 | 0.0554 | 
CCC(=O)Nc1cc(C(=O)Nc2ccc(OC)cc2)ccc1OC [Compound 2611, N-(4′-methoxyphenyl)-3-propionamido-4-methoxybenzamide] | 28.9 |  | 0.017 (≈ 0.0518 µM)
CCC(=O)Nc1cc(C(=O)Nc2ccc(Cl)cc2)ccc1OC [Compound 2613, N-(4′-chlorophenyl)-3-propionamido-4-methoxybenzamide] | 27.8 |  | 0.0138 (≈ 0.0415 µM)
